Source: PubChem BioAssay AID248 (DTP/NCI, 2004)
Values joined by “and” are separate entries in the source; they are usually repeats but may differ in a detail not shown here. Identical values can stand only once. Inconclusive results and toxic doses are left out. Rule as the data show it: active = T/C of 150% or more; inactive = T/C below 125%.

Tested on: L1210 leukemia ip in BDF1 mice, survival T/C
Assay: NCI In Vivo Anticancer Drug Screen. Data for tumor model L1210 Leukemia (intraperitoneal) in B6D2F1 (BDF1) mice
Conditions: endpoint: mean survival time, higher = longer survival
In short: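 Transplantable tumor model; survival measured in treated vs vehicle control mice. Value = treated/control.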

[1] = dose: 50.0 mg/kg/injection, schedule: Q01DX009 (ip), vehicle: Klucel (hydroxypropylcellulose) (HPC)
[2] = dose: 100.0 mg/kg/injection, schedule: Q01DX001 (ip), vehicle: Klucel (hydroxypropylcellulose) (HPC)
[3] = dose: 100.0 mg/kg/injection, schedule: Q01DX009 (ip), vehicle: Klucel (hydroxypropylcellulose) (HPC)
[4] = dose: 200.0 mg/kg/injection, schedule: Q01DX001 (ip), vehicle: Klucel (hydroxypropylcellulose) (HPC)
[5] = dose: 200.0 mg/kg/injection, schedule: Q01DX009 (ip), vehicle: Klucel (hydroxypropylcellulose) (HPC)
[6] = dose: 100.0 mg/kg/injection, schedule: Q04DX003 (ip), vehicle: Klucel (hydroxypropylcellulose) (HPC)
[7] = dose: 200.0 mg/kg/injection, schedule: Q04DX003 (ip), vehicle: Klucel (hydroxypropylcellulose) (HPC)
[8] = dose: 25.0 mg/kg/injection, schedule: Q04DX003 (ip), vehicle: saline
[9] = dose: 50.0 mg/kg/injection, schedule: Q01DX009 (ip), vehicle: saline
[10] = dose: 100.0 mg/kg/injection, schedule: Q01DX001 (ip), vehicle: saline
[11] = dose: 100.0 mg/kg/injection, schedule: Q01DX009 (ip), vehicle: saline
[12] = dose: 100.0 mg/kg/injection, schedule: Q04DX003 (ip), vehicle: saline with Tween-80
[13] = dose: 200.0 mg/kg/injection, schedule: Q04DX003 (ip), vehicle: saline with Tween-80
[14] = dose: 400.0 mg/kg/injection, schedule: Q04DX003 (ip), vehicle: saline with Tween-80
[15] = dose: 100.0 mg/kg/injection, schedule: Q01DX001 (ip), vehicle: saline with Tween-80
[16] = dose: 200.0 mg/kg/injection, schedule: Q01DX001 (ip), vehicle: saline with Tween-80
[17] = dose: 100.0 mg/kg/injection, schedule: Q01DX001 (ip), vehicle: carboxymethylcellulose (CMC)
[18] = dose: 200.0 mg/kg/injection, schedule: Q01DX001 (ip), vehicle: carboxymethylcellulose (CMC)
[19] = dose: 400.0 mg/kg/injection, schedule: Q01DX001 (ip), vehicle: carboxymethylcellulose (CMC)
[20] = dose: 25.0 mg/kg/injection, schedule: Q01DX009 (ip), vehicle: saline with Tween-80
[21] = dose: 50.0 mg/kg/injection, schedule: Q01DX009 (ip), vehicle: saline with Tween-80
[22] = dose: 200.0 mg/kg/injection, schedule: Q01DX009 (ip), vehicle: saline
[23] = dose: 50.0 mg/kg/injection, schedule: Q01DX001 (ip), vehicle: saline
[24] = dose: 200.0 mg/kg/injection, schedule: Q01DX001 (ip), vehicle: saline
[25] = dose: 400.0 mg/kg/injection, schedule: Q01DX001 (ip), vehicle: saline
[26] = dose: 400.0 mg/kg/injection, schedule: Q01DX009 (ip), vehicle: Klucel (hydroxypropylcellulose) (HPC)
[27] = dose: 400.0 mg/kg/injection, schedule: Q04DX003 (ip), vehicle: Klucel (hydroxypropylcellulose) (HPC)

Measured: T/C

CC12OC1(C)C1(C)C3(C)OC3(C)C21C (configuration not stated)
inactive: [1] 97 % of control | [2] 100 % of control | [3] 96 % of control | [4] 100 % of control | [5] 96 % of control

CS(=O)(=O)OCCN=C(N)N[N+](=O)[O-]
inactive: dose: 20.0 mg/kg/injection, schedule: Q04DX003 (ip), vehicle: Klucel (hydroxypropylcellulose) (HPC) 95 % of control | dose: 40.0 mg/kg/injection, schedule: Q04DX003 (ip), vehicle: Klucel (hydroxypropylcellulose) (HPC) 95 % of control | dose: 80.0 mg/kg/injection, schedule: Q04DX003 (ip), vehicle: Klucel (hydroxypropylcellulose) (HPC) 97 % of control | [6] 105 % of control

COc1ccccc1N=Nc1ccc(O)c(C(=O)O)c1
inactive: [6] 102 % of control | [7] 103 % of control

OCCN1CCN(Cc2cccc3ccccc23)CC1
inactive: dose: 25.0 mg/kg/injection, schedule: Q01DX009 (ip), vehicle: saline 112 % of control | [8] 101 % of control | [9] 98 % of control | dose: 50.0 mg/kg/injection, schedule: Q04DX003 (ip), vehicle: saline 102 % of control | [10] 103 % of control | [11] 102 % of control | dose: 100.0 mg/kg/injection, schedule: Q04DX003 (ip), vehicle: saline 98 % of control

CCOC(=O)C12CCCC(C1=O)[N+](CC)(CC)CC2 (configuration not stated)
inactive: dose: 75.0 mg/kg/injection, schedule: Q01DX001 (ip), vehicle: saline 100 % of control | dose: 150.0 mg/kg/injection, schedule: Q01DX001 (ip), vehicle: saline 101 % of control

C(=N\Nc1ccccc1)/C(=N\Nc1ccccc1)c1ccccc1
inactive: [12] 103 % of control | [13] 97 % of control | [14] 98 % of control

O=C(/C=C(\Cl)c1ccc2c(c1)OCO2)OC/C=C\c1ccc2c(c1)OCO2
inactive: [1] 94 % of control | [2] 93 % of control | [3] 92 % of control | [4] 88 % of control | [5] 92 % of control

CN(C)C1C(CO)C(CO)C1(C)C (configuration not stated)
inactive: [15] 102 % of control | [16] 97 % of control

NC(=O)C1(Nc2ccc(-c3ccccc3)cc2)CCCC1
inactive: dose: 50.0 mg/kg/injection, schedule: Q01DX001 (ip), vehicle: carboxymethylcellulose (CMC) 96 % of control | [17] 96 % of control | [18] 88 % of control | [19] 90 % of control

O=[N+]([O-])c1ccc(S(=O)(=O)OCC2CO2)cc1 (configuration not stated)
inactive: dose: 100.0 mg/kg/injection, schedule: Q01DX008 (ip), vehicle: Klucel (hydroxypropylcellulose) (HPC) 108 % of control | dose: 200.0 mg/kg/injection, schedule: Q01DX008 (ip), vehicle: Klucel (hydroxypropylcellulose) (HPC) 95 % of control | dose: 400.0 mg/kg/injection, schedule: Q01DX008 (ip), vehicle: Klucel (hydroxypropylcellulose) (HPC) 89 % of control

CC12C(=O)OC(=O)C1(C)C1OC2C(Br)C1Br (configuration not stated)
inactive: [20] 95 % of control | [21] 97 % of control | dose: 100.0 mg/kg/injection, schedule: Q01DX009 (ip), vehicle: saline with Tween-80 88 % of control

O=C(CCCCc1ccc([N+](=O)[O-])cc1)Nc1ccc(S(=O)(=O)F)cc1
inactive: [1] 102 % of control | [3] 100 % of control | [5] 88 % of control

CCN(CC)C(=O)N1CCCCC1
inactive: [11] 101 % of control | dose: 100.0 mg/kg/injection, schedule: Q04DX002 (ip), vehicle: saline 97 % of control | [22] 92 % of control | dose: 200.0 mg/kg/injection, schedule: Q04DX002 (ip), vehicle: saline 100 % of control | dose: 400.0 mg/kg/injection, schedule: Q04DX002 (ip), vehicle: saline 95 % of control

COc1ccc(CN2CCCN(Cc3ccc(OC)cc3OC)C2c2cc(Cl)cc(Cl)c2O)c(OC)c1
inactive: [23] 92 % of control | [10] 97 % of control | [24] 92 % of control | [25] 90 % of control

CC1(C)CN1C1=C(F)C(=O)C(N2CC2(C)C)=C(F)C1=O
inactive: dose: 6.25 mg/kg/injection, schedule: Q04DX003 (ip), vehicle: saline 100 % of control | dose: 12.5 mg/kg/injection, schedule: Q04DX003 (ip), vehicle: saline 104 % of control | [8] 104 % of control

O=C(c1ccccc1)C(C(O)CCl)C(O)(C(F)(F)F)C(F)(F)F (configuration not stated)
inactive: [12] 89 % of control | [13] 93 % of control | [14] 91 % of control

CCC/C=C/CC1CCCCC1
inactive: [9] 97 % of control | [11] 97 % of control | [22] 102 % of control

CC1(CO)C2CCC(CC2)C1CO (configuration not stated)
inactive: dose: 100.0 mg/kg/injection, schedule: Q04DX003 (ip), vehicle: acetone 98 % of control | dose: 200.0 mg/kg/injection, schedule: Q04DX003 (ip), vehicle: acetone 96 % of control | dose: 400.0 mg/kg/injection, schedule: Q04DX003 (ip), vehicle: acetone 93 % of control

COC(=O)COc1cc(Cl)c(Cl)cc1Cl
inactive: dose: 100.0 mg/kg/injection, schedule: Q04DX002 (ip), vehicle: saline with Tween-80 95 % of control | dose: 200.0 mg/kg/injection, schedule: Q04DX002 (ip), vehicle: saline with Tween-80 95 % of control

O=C1c2ccccc2C(=O)c2c(Nc3ccc(CCO)cc3)ccc(O)c21
inactive: [3] 103 % of control | [6] 102 % of control | [5] 97 % of control | [7] 100 % of control | [26] 101 % of control | [27] 102 % of control

CC(=O)OCCC/C(=C/c1ccc(/C=C(\CCCOC(C)=O)[N+](=O)[O-])cc1)[N+](=O)[O-]
inactive: [17] 92 % of control | [18] 97 % of control | [19] 91 % of control

O=C(Cl)c1ccc(OC(Cl)(Cl)Cl)cc1
inactive: [6] 109 % of control | [5] 100 % of control | [7] 92 % of control | [26] 95 % of control | [27] 94 % of control

CCOC(=O)C1CN(C(C)C)C(=O)C1=O (configuration not stated)
inactive: [23] 100 % of control | [10] 102 % of control | [24] 96 % of control | [25] 114 % of control

CN(C)/N=C\c1ccccc1Cl
inactive: dose: 12.5 mg/kg/injection, schedule: Q01DX009 (ip), vehicle: saline with Tween-80 91 % of control | [20] 102 % of control | [21] 100 % of control and 101 % of control | [15] 100 % of control | [12] 101 % of control | [16] 96 % of control | [13] 98 % of control | dose: 400.0 mg/kg/injection, schedule: Q01DX001 (ip), vehicle: saline with Tween-80 117 % of control

O=[N+]([O-])c1cccc2cncc(Br)c12
inactive: dose: 100.0 mg/kg/injection, schedule: Q01DX001 (ip), vehicle: other 95 % of control | dose: 200.0 mg/kg/injection, schedule: Q01DX001 (ip), vehicle: other 106 % of control | dose: 400.0 mg/kg/injection, schedule: Q01DX001 (ip), vehicle: other 104 % of control

O=C(c1ccccc1)C1CSSC1c1ccccc1 (configuration not stated)
inactive: dose: 12.5 mg/kg/injection, schedule: Q04DX003 (ip), vehicle: Klucel (hydroxypropylcellulose) (HPC) 100 % of control | dose: 25.0 mg/kg/injection, schedule: Q04DX003 (ip), vehicle: Klucel (hydroxypropylcellulose) (HPC) 100 % of control | dose: 50.0 mg/kg/injection, schedule: Q04DX003 (ip), vehicle: Klucel (hydroxypropylcellulose) (HPC) 97 % of control

CCCCCCCCCCCCCCCC[n+]1ccccc1
inactive: dose: 0.12 mg/kg/injection, schedule: Q01DX Z (ip), vehicle: water 101 % of control | dose: 0.25 mg/kg/injection, schedule: Q01DX Z (ip), vehicle: water 101 % of control | dose: 0.5 mg/kg/injection, schedule: Q01DX Z (ip), vehicle: water 108 % of control | dose: 1.0 mg/kg/injection, schedule: Q01DX Z (ip), vehicle: water 103 % of control
